Columns and labels:
CaSR = biological target: T1, CaSR (Rattus norvegicus, UniProt P48442); test: Accumulation of tritiated inositol phosphates in CHO(CaSR) cells; format: cell-based; settings: for activation at 10 µM / activity at 10 µM: compound 10 μM; for activation at 10 µM: in the presence of 2 mM Ca2+; for activation at 10 µM / activation at 1 µM: CHO(CaSR) cells, read-out: Accumulation of (3H)-IP % of the 10 mM Ca2+ response ± S.E.; for activity at 10 µM: basal level at 2 mM Ca2+ = 100%, read-out: Accumulation of (1H)-IP % of basal level, CHO (CaSR); for activity greater than that of calcium (10 mM) / activation at 1 µM: compound 1 μM
T1 construct: expressed in transfected cells; host or cells: CHO (Chinese hamster ovary) cells, CHO(CaSR)
T1 sequence (P48442 20-1079): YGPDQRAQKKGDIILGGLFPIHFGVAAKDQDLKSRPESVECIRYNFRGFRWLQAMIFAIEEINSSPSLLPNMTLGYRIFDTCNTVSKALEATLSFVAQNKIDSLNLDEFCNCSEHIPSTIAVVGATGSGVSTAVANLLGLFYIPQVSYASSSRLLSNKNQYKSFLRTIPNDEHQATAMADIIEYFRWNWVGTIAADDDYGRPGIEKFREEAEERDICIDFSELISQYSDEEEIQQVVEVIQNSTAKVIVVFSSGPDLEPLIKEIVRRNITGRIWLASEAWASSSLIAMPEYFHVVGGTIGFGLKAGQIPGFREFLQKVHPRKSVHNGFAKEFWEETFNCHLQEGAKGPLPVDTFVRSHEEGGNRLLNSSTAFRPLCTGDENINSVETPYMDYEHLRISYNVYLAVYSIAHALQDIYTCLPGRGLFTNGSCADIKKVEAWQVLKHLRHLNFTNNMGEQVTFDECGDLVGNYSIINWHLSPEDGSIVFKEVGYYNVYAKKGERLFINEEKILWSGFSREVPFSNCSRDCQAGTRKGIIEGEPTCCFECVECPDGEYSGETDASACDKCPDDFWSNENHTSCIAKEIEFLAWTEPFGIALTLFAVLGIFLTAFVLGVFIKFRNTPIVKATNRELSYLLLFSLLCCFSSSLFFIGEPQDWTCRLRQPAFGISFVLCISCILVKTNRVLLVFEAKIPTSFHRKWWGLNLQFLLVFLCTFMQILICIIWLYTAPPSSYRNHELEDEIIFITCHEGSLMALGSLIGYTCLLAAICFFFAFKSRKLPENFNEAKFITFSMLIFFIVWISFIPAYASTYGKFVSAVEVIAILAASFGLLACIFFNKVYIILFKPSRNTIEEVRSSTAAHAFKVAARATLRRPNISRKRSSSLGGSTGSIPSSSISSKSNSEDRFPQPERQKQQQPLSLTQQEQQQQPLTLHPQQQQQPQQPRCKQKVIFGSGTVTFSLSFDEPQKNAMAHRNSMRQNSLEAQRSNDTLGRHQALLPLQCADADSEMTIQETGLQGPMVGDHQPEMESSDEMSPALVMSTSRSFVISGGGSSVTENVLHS
From the text: The complementary DNA encoding rat CaSR has been isolated from a rat striatum cDNA library (Ruat et al, Proc. Natl. Acad. Sci., 1995). This receptor is identical, in terms of its amino acid sequence, to that expressed in the other tissues. Transfected Chinese hamster ovary (CHO) cells expressing rat CaSR (CHO(CaSR)) have been characterized and the chemical signals (second messengers) induced by activation of this receptor have been analyzed. Thus, a biochemical test for measuring the accumulation of tritiated inositol phosphates, [^3H]IPs, in response to activation of the receptor has been developed (Ruat et al, J. Biol. Chem., 1996; Ferry et al, Biochem. Biophys. Res. Common., 1997).
The calcimimetic activity of the compounds was estimated by measuring the accumulation of tritiated inositol phosphates, […] Ca^2+, in CHO(CaSR) cells (Ferry et al, Biochem Biophys Res Commun, 1997).
This activation was compared with that induced by the compound NPS-R-568, a reference calcimimetic used at a concentration of 10 μM (Table 1) (Ferry et al, Biochem Biophys Res Commun, 1997; Nemeth et al, Proc Natl Acad Sci USA, 1997).
The calcimimetic activity of the PHD/AK compounds is compared with that of a reference compound, NPS-R-568, used at the same concentration and under the same experimental conditions. This activity is expressed as a percentage of the activity of 10 mM of Ca^2+. The means±standard errors of the means of 2 to 5 independent manipulations are indicated. The experiments were carried out in the presence of 2 mM of Ca^2+.
(§1) The accumulation of tritiated inositol phosphates is expressed as a percentage of the basal level observed in the presence of 2 mM Ca^2+ (100%) in CHO (WT^+) or CHO(CaSR) cells.

CHO (WT*) cells = test: Accumulation of tritiated inositol phosphates in control CHO(WT*) cells not expressing the CaSR; format: cell-based, Chinese hamster; settings: Cricetulus griseus, 1 h; compound 10 μM; basal level at 2 mM Ca2+ = 100%; read-out: Accumulation of (3H)-IP % of basal level, CHO (WT*)
Experimental: as §1

[1] = biological target: T2, receptors of the parathyroid (Rattus norvegicus, UniProt P48442); settings: rats; cited from earlier work
T2 construct: from tissue; host or cells: parathyroid gland of rats (in vivo)
T2 sequence (P48442 20-1079): T1 sequence (P48442 20-1079)

[2] = rats; cited from earlier work
[3] = patients (men) suffering from chronic renal failure; cited from earlier work
[4] = oral, menopausal women with primary hyperparathyroidism; cited from earlier work
[5] = clinical trials phase I-II; cited from earlier work

CC(NCc1cc2ccccc2n1C)c1cccc2ccccc12 (stereo not drawn) [AK 43]
activation at 10 µM (CaSR): 79 ± 13%
activity at 10 µM (CaSR): 401 ± 16%
activity at 10 µM (CHO (WT*) cells): 109 ± 2%

COc1cccc([C@@H](C)NCCCc2ccccc2)c1 [NPS R-467]
selectivity, receptors of the parathyroid compared with those of the thyroid gland [1]: more selective

COc1cccc([C@@H](C)NCCCc2ccccc2Cl)c1.Cl [NPS R-568]
activation at 10 µM (CaSR): 106 ± 15%
activity at 10 µM (CaSR): 454 ± 33%
activity at 10 µM (CHO (WT*) cells): 110 ± 9%
osteitis fibrosa [2]: reduces or eliminates osteitis fibrosa
PTH concentrations [3]: reduces PTH concentrations
concentrations of PTH [4]: lower
concentrations of free serum Ca2+ ions [4]: lower
bioavailability [5]: low

C[C@@H](NCc1cc2ccccc2[nH]1)c1cccc2ccccc12.Cl.Cl [PHD 337-R, (R)-N-[(indole-2-yl)methyl]-N-[1-(1-naphthyl)ethyl]amine.HCl]
activity greater than that of calcium (10 mM) (CaSR): 50%
activation at 1 µM (CaSR): 73 ± 10%
activity at 10 µM (CaSR): 588 ± 129%
activity at 10 µM (CHO (WT*) cells): 130 ± 9%
melting point: 204 °C

C[C@H](NCc1cc2ccccc2[nH]1)c1cccc2ccccc12 [PHD 337-S]
activation at 1 µM (CaSR): 3 ± 2%
activation at 10 µM (CaSR): 32 ± 5%
activity at 10 µM (CaSR): 225 ± 7%
activity at 10 µM (CHO (WT*) cells): 132 ± 1%

CC(NCc1cc2ccccc2[nH]1)c1cccc2ccccc12.Cl.Cl (stereo not drawn) [PHD 337]
activity greater than that of calcium (10 mM) (CaSR): 50%
activation at 1 µM (CaSR): 69 ± 9%
activation at 10 µM (CaSR): 90 to 100%
activity at 10 µM (CaSR): 444 ± 101%
activity at 10 µM (CHO (WT*) cells): 147 ± 14%

COc1ccc(S(=O)(=O)n2c(CNC(C)c3cccc4ccccc34)cc3ccccc32)cc1OC (stereo not drawn) [PHD 338]
activation at 10 µM (CaSR): 54 ± 5%
activity at 10 µM (CaSR): 202 ± 9%
activity at 10 µM (CHO (WT*) cells): 111 ± 10%

COc1cccc([C@@H](C)NCc2cc3ccccc3[nH]2)c1 [PHD 356]
activity greater than that of calcium (10 mM) (CaSR): 50%
activation at 1 µM (CaSR): 76 ± 1%
activation at 10 µM (CaSR): 90 to 100%
activity at 10 µM (CaSR): 482 ± 58%
activity at 10 µM (CHO (WT*) cells): 151 ± 7%

COc1ccc2[nH]c(CNC(C)c3cccc4ccccc34)cc2c1 (stereo not drawn) [PHD 359]
activation at 10 µM (CaSR): 55 ± 5%
activity at 10 µM (CaSR): 303 ± 42%
activity at 10 µM (CHO (WT*) cells): 117 ± 8%

CC(NCc1cc2cc(F)ccc2[nH]1)c1cccc2ccccc12 (stereo not drawn) [PHD 361]
activation at 10 µM (CaSR): 87 ± 7%
activity at 10 µM (CaSR): 420 ± 70%
activity at 10 µM (CHO (WT*) cells): 133 ± 3%

CC(NCc1cc2cc(Cl)ccc2[nH]1)c1cccc2ccccc12.Cl.Cl (stereo not drawn) [PHD 363]
activity greater than that of calcium (10 mM) (CaSR): less active
activation at 1 µM (CaSR): 6 ± 3%
activation at 10 µM (CaSR): 60 ± 1%
activity at 10 µM (CaSR): 325 ± 67%
activity at 10 µM (CHO (WT*) cells): 125 ± 12%

CC(NCC1Cc2ccccc2N1)c1cccc2ccccc12 (stereo not drawn) [PHD 368]
activation at 10 µM (CaSR): 77 ± 1%
activity at 10 µM (CaSR): 388 ± 85%
activity at 10 µM (CHO (WT*) cells): 126 ± 6%

From patent publication US7084167B2, “Calcium receptor active molecules and method for preparing same” (Centre National de la Rechereche Scientifique (CNRS), priority 2000, dated 2006)
